Reference: ChEMBL document CHEMBL5058649, “Data for DCP probe BAY 1816032” (2022)
pKd: −log10 of the molar value.

Legend:
[1] = biological target: L-type calcium channel, dihydropyridine site (Cav1.2 alpha-1C) (Homo sapiens, UniProt Q13936); experiment: Inhibition of Calcium Channel L-Type, Dihydropyridine at 10 µM in the Eurofins-Panlabs radioligand binding assay (Eurofins_assay_214600); design: ligand concentration 0.1 nM, non-specific ligand with concentration 1 µM Nitrendipine, incubation time 90 min, incubation temperature 25 °C; conditions: Wistar, rat, rat cerebral cortex preparation, probe [3H] Nitrendipine; compound concentration 10 uM; target entry is the homologue from another species
[2] = biological target: ATP-sensitive inward rectifier potassium channel 11 (Cricetulus griseus) (UniProt A0A3L7HHE1); experiment: Inhibition of Potassium Channel [KATP] at 10 µM in the Eurofins-Panlabs radioligand binding assay (Eurofins_assay_265600); conditions: Cricetinae; Compound concentration 10.0 uM
hERG (KCNH2) = hERG (KCNH2) (Homo sapiens, UniProt Q12809); experiment: Inhibition of Potassium Channel hERG at 10 µM in the Eurofins-Panlabs radioligand binding assay (Eurofins_assay_265900); design: ligand concentration 1.5 nM, non-specific ligand with concentration Astemizole, incubation time 60 min, incubation temperature 25 °C; conditions: HEK-293 cells expressing human recombinant hERG, probe [3H] Astemizole, compound concentration 10 uM
MAO-A = MAO-A (Homo sapiens, UniProt P21397); experiment: Inhibition of Monoamine Oxidase MAO-A at compound concentration of 10.0 uM in the Eurofins-Panlabs enzyme assay (Eurofins_assay_140010); design: substrate with concentration 50 uM Kynuramine, incubation time 60 min, incubation temperature 37 C; conditions: human recombinant MAO-A expressed in insect Hi5 cells, probe Kynuramine (50 uM), compound concentration 10 uM
[3] = biological target: Mitotic checkpoint serine/threonine-protein kinase BUB1 (Homo sapiens, UniProt O43683); experiment: BUB1 DiscoveRx kinase panel
[4] = biological target: Epithelial discoidin domain-containing receptor 1 (Homo sapiens, UniProt Q08345); experiment: DDR1 DiscoveRx kinase panel
[5] = biological target: Tyrosine-protein kinase receptor UFO (Homo sapiens) (UniProt P30530); experiment: AXL DiscoveRx kinase panel; conditions: Compound concentration 1.0 uM
[6] = biological target: Tyrosine-protein kinase receptor Tie-1 (Homo sapiens) (UniProt P35590); experiment: TIE1 DiscoveRx kinase panel; conditions: Compound concentration 1.0 uM
[7] = biological target: Myosin light chain kinase 2, skeletal/cardiac muscle (Homo sapiens) (UniProt Q9H1R3); experiment: MYLK2 DiscoveRx kinase panel; conditions: Compound concentration 1.0 uM
[8] = biological target: RAF proto-oncogene serine/threonine-protein kinase (Homo sapiens) (UniProt P04049); experiment: RAF1 DiscoveRx kinase panel; conditions: Compound concentration 1.0 uM
[9] = biological target: MAP/microtubule affinity-regulating kinase 3 (Homo sapiens) (UniProt P27448); experiment: MARK3 DiscoveRx kinase panel; conditions: Compound concentration 1.0 uM
[10] = biological target: SRSF protein kinase 2 (Homo sapiens) (UniProt P78362); experiment: SRPK2 DiscoveRx kinase panel; conditions: Compound concentration 1.0 uM
[11] = biological target: Serine/threonine-protein kinase 38-like (Homo sapiens) (UniProt Q9Y2H1); experiment: NDR2 DiscoveRx kinase panel; conditions: Compound concentration 1.0 uM
[12] = biological target: Serine/threonine-protein kinase D3 (Homo sapiens) (UniProt O94806); experiment: PRKD3 DiscoveRx kinase panel; conditions: Compound concentration 1.0 uM
[13] = biological target: Mitogen-activated protein kinase kinase kinase 4 (Homo sapiens) (UniProt Q9Y6R4); experiment: MAP3K4 DiscoveRx kinase panel; conditions: Compound concentration 1.0 uM
[14] = biological target: Phosphatidylinositol 4,5-bisphosphate 3-kinase catalytic subunit gamma isoform (Homo sapiens) (UniProt P48736); experiment: PIK3CG DiscoveRx kinase panel; conditions: Compound concentration 1.0 uM
[15] = biological target: Transient receptor potential cation channel subfamily M member 6 (Homo sapiens) (UniProt Q9BX84); experiment: TRPM6 DiscoveRx kinase panel; conditions: Compound concentration 1.0 uM
[16] = biological target: Serine/threonine-protein kinase BRSK2 (Homo sapiens) (UniProt Q8IWQ3); experiment: BRSK2 DiscoveRx kinase panel; conditions: Compound concentration 1.0 uM
[17] = biological target: Mitogen-activated protein kinase 12 (Homo sapiens) (UniProt P53778); experiment: p38-gamma DiscoveRx kinase panel; conditions: Compound concentration 1.0 uM
[18] = biological target: Phosphatidylinositol 4-phosphate 5-kinase type-1 alpha (Homo sapiens) (UniProt Q99755); experiment: PIP5K1A DiscoveRx kinase panel; conditions: Compound concentration 1.0 uM
[19] = biological target: Receptor-type tyrosine-protein kinase FLT3 (Homo sapiens) (UniProt P36888); experiment: FLT3 DiscoveRx kinase panel; conditions: Compound concentration 1.0 uM
[20] = biological target: Serine/threonine-protein kinase NLK (Homo sapiens) (UniProt Q9UBE8); experiment: NLK DiscoveRx kinase panel; conditions: Compound concentration 1.0 uM
[21] = biological target: Casein kinase I isoform alpha-like (Homo sapiens) (UniProt Q8N752); experiment: CSNK1A1L DiscoveRx kinase panel; conditions: Compound concentration 1.0 uM
[22] = biological target: Serine/threonine-protein kinase WNK2 (Homo sapiens) (UniProt Q9Y3S1); experiment: WNK2 DiscoveRx kinase panel; conditions: Compound concentration 1.0 uM
[23] = biological target: Mitogen-activated protein kinase kinase kinase 19 (Homo sapiens) (UniProt Q56UN5); experiment: YSK4 DiscoveRx kinase panel; conditions: Compound concentration 1.0 uM
[24] = biological target: Hormonally up-regulated neu tumor-associated kinase (Homo sapiens) (UniProt P57058); experiment: HUNK DiscoveRx kinase panel; conditions: Compound concentration 1.0 uM
[25] = biological target: Dual specificity tyrosine-phosphorylation-regulated kinase 2 (Homo sapiens) (UniProt Q92630); experiment: DYRK2 DiscoveRx kinase panel; conditions: Compound concentration 1.0 uM
[26] = biological target: Fibroblast growth factor receptor 2 (Homo sapiens) (UniProt P21802); experiment: FGFR2 DiscoveRx kinase panel; conditions: Compound concentration 1.0 uM
[27] = biological target: Glycogen synthase kinase-3 beta (Homo sapiens) (UniProt P49841); experiment: GSK3B DiscoveRx kinase panel; conditions: Compound concentration 1.0 uM
[28] = biological target: Interleukin-1 receptor-associated kinase 1 (Homo sapiens) (UniProt P51617); experiment: IRAK1 DiscoveRx kinase panel; conditions: Compound concentration 1.0 uM
[29] = biological target: Serine/threonine-protein kinase LATS2 (Homo sapiens) (UniProt Q9NRM7); experiment: LATS2 DiscoveRx kinase panel; conditions: Compound concentration 1.0 uM
[30] = biological target: Serine/threonine-protein kinase OSR1 (Homo sapiens) (UniProt O95747); experiment: OSR1 DiscoveRx kinase panel; conditions: Compound concentration 1.0 uM
[31] = biological target: Serine/threonine-protein kinase PAK 1 (Homo sapiens) (UniProt Q13153); experiment: PAK1 DiscoveRx kinase panel; conditions: Compound concentration 1.0 uM
[32] = biological target: Serine/threonine-protein kinase pim-3 (Homo sapiens) (UniProt Q86V86); experiment: PIM3 DiscoveRx kinase panel; conditions: Compound concentration 1.0 uM
[33] = biological target: Ribosomal protein S6 kinase alpha-4 (Homo sapiens) (UniProt O75676); experiment: RPS6KA4(Kin.Dom.2-C-terminal) DiscoveRx kinase panel; conditions: Compound concentration 1.0 uM
[34] = biological target: Ribosomal protein S6 kinase alpha-3 (Homo sapiens) (UniProt P51812); experiment: RSK2(Kin.Dom.1-N-terminal) DiscoveRx kinase panel; conditions: Compound concentration 1.0 uM
[35] = biological target: Serine/threonine-protein kinase SIK2 (Homo sapiens) (UniProt Q9H0K1); experiment: SIK2 DiscoveRx kinase panel; conditions: Compound concentration 1.0 uM
[36] = biological target: Mitogen-activated protein kinase kinase kinase 7 (Homo sapiens) (UniProt O43318); experiment: TAK1 DiscoveRx kinase panel; conditions: Compound concentration 1.0 uM
[37] = biological target: TRAF2 and NCK-interacting protein kinase (Homo sapiens) (UniProt Q9UKE5); experiment: TNIK DiscoveRx kinase panel; conditions: Compound concentration 1.0 uM
[38] = biological target: Serine/threonine-protein kinase ULK3 (Homo sapiens) (UniProt Q6PHR2); experiment: ULK3 DiscoveRx kinase panel; conditions: Compound concentration 1.0 uM
MDA-MB-453 = experiment: MDA-MB-453 cell line Proliferation assay; assay type: functional, Homo sapiens; conditions: time 4 day
[39] = biological target: GABA-A receptor; anion channel (Rattus norvegicus) (UniProt O09028+P15431+P18506+P18508+P19969+P20236+P23574+P23576+P28471+P28473+P30191+P62813+P63079+P63138+Q91ZM7+Q9ES14); conditions: Compound concentration 10.0 uM

Epithelial discoidin domain-containing receptor 1, sequence (Q08345 whole entry, the tested form may be a part): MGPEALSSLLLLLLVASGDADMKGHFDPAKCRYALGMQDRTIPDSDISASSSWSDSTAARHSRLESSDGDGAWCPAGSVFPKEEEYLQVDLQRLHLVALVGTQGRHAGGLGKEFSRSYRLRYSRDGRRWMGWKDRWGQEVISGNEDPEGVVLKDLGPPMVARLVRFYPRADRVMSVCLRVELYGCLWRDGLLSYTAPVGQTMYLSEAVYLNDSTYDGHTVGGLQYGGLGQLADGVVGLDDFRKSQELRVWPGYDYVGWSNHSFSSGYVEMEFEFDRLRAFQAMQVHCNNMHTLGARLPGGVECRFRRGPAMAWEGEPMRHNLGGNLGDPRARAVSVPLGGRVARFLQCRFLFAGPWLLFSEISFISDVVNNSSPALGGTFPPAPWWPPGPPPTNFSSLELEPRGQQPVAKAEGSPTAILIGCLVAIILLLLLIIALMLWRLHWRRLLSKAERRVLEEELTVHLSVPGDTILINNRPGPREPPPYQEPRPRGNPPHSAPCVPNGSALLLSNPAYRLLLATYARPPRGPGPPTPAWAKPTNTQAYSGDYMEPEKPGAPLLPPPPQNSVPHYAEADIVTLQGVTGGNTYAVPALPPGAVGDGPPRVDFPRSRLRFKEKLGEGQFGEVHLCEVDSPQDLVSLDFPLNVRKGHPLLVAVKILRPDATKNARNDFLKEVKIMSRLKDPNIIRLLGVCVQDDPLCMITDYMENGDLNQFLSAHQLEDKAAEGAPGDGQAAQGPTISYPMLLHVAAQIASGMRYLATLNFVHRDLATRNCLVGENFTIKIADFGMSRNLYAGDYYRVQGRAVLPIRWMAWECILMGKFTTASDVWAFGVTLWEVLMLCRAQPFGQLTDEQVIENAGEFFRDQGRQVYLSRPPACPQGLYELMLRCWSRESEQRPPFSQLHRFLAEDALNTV
Mitogen-activated protein kinase kinase kinase 19 (Homo sapiens), sequence (Q56UN5 whole entry): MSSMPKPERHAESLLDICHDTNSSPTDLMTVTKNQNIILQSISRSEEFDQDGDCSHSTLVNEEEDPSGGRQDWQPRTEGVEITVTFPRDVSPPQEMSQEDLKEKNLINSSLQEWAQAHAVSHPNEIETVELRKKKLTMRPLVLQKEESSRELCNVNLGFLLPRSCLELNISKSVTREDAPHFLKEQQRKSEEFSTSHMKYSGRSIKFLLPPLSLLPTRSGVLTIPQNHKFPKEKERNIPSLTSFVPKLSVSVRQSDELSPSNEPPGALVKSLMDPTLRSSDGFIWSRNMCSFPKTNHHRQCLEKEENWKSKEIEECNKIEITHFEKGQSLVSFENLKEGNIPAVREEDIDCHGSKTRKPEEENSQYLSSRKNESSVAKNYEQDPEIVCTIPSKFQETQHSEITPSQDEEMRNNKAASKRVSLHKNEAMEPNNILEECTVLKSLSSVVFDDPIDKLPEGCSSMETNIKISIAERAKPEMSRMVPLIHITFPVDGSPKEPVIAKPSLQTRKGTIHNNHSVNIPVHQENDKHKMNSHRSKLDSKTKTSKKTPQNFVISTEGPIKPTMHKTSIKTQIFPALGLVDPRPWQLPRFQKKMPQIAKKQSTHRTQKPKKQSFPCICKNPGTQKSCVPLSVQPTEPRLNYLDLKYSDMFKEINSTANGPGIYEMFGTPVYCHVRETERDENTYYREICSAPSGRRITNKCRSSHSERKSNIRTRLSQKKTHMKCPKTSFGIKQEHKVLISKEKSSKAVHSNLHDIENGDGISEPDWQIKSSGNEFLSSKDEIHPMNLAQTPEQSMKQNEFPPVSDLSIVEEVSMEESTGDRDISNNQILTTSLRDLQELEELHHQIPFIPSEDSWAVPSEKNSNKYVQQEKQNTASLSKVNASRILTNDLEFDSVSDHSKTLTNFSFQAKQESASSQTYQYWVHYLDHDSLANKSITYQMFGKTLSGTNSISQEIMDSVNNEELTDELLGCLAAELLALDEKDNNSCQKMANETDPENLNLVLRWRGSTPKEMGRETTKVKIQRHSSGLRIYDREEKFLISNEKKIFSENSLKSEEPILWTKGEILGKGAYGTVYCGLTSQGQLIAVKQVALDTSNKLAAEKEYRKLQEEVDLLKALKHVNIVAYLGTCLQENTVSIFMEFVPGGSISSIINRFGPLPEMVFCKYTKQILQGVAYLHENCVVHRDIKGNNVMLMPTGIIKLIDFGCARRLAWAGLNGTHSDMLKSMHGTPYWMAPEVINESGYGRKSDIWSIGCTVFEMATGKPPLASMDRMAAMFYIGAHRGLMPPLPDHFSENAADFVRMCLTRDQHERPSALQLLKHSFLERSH
Hormonally up-regulated neu tumor-associated kinase (Homo sapiens), sequence (P57058 whole entry): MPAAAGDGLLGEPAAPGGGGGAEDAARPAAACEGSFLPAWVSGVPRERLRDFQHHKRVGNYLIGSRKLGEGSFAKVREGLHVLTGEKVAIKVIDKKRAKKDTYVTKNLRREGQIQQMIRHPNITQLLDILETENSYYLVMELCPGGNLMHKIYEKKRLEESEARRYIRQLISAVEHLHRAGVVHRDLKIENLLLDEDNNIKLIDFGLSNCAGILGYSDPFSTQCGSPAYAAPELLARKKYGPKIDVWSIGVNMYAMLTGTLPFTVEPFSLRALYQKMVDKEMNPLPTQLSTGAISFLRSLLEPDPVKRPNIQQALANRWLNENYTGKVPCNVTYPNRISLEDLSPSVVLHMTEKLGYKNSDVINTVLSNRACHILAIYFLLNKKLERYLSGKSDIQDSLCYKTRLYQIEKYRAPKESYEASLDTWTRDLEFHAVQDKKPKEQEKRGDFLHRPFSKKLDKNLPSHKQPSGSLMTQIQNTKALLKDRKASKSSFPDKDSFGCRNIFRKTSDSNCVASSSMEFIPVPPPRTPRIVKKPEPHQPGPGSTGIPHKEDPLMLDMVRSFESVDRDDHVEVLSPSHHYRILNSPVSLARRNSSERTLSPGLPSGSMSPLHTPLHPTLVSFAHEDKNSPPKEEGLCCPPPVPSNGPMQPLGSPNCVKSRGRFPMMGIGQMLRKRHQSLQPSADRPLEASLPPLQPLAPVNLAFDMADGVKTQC
Interleukin-1 receptor-associated kinase 1 (Homo sapiens), sequence (P51617 whole entry, looked up): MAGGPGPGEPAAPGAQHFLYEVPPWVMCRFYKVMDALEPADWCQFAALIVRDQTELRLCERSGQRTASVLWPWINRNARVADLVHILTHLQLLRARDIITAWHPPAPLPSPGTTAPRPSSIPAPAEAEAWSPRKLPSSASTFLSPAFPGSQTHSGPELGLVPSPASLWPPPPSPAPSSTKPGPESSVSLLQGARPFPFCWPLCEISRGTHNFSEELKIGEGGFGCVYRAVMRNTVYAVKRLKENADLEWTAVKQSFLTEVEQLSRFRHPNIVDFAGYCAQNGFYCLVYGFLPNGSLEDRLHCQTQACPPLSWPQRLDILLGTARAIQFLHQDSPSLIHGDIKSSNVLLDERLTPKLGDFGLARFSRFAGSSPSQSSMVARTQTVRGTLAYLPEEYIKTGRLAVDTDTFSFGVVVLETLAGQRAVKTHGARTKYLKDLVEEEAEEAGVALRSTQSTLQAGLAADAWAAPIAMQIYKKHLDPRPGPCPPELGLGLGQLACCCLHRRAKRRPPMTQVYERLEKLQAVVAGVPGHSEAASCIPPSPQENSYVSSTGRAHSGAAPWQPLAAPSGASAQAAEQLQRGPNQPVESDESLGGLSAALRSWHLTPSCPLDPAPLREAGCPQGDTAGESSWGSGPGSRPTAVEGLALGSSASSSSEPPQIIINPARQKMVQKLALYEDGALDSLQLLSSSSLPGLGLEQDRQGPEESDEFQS
Ribosomal protein S6 kinase alpha-3 (Homo sapiens), sequence (P51812 whole entry): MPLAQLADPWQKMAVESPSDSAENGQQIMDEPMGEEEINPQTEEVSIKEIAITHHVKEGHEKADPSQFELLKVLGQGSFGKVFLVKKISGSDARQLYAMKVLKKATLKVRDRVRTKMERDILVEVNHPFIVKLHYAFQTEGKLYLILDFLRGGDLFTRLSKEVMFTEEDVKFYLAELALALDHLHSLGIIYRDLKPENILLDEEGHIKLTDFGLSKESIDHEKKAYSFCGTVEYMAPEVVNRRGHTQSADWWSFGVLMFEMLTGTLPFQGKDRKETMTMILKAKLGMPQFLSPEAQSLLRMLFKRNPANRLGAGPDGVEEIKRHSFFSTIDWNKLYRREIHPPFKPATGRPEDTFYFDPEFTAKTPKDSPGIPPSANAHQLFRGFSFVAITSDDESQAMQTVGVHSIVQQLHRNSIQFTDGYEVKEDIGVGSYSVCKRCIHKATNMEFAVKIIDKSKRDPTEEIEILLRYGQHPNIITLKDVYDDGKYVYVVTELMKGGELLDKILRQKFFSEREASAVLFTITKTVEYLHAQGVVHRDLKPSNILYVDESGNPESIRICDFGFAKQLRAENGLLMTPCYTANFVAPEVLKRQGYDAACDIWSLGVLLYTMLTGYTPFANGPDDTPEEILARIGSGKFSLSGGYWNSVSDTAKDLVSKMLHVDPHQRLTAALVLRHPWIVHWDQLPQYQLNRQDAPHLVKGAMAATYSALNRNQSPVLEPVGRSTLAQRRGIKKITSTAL
MAO-A, sequence (P21397 whole entry): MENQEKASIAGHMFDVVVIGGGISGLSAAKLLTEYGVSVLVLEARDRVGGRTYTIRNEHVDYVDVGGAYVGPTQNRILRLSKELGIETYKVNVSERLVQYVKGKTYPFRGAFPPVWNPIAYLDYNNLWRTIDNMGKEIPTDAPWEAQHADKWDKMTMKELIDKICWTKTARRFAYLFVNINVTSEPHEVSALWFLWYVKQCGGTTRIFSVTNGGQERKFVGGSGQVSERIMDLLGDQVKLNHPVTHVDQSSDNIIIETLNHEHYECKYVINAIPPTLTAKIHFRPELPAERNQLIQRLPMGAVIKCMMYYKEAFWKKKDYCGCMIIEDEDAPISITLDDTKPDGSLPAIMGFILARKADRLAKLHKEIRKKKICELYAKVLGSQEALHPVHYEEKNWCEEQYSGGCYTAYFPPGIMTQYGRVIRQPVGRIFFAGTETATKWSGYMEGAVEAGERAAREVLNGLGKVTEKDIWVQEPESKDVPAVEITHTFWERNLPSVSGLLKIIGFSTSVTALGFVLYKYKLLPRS

For `COc1cnccc1Nc1nc(-c2nn(Cc3c(F)cc(OCCO)cc3F)c3ccccc23)ncc1OC`, the inhibition at 90 min, 10 µM [1] was 8% (not active), the inhibition [2] was 4% and the inhibition at 60 min, 10 µM (hERG (KCNH2)) was 23% (not active). The inhibition at 60 min, 10 µM (MAO-A) was 7% (not active), the pKd [3] was 8.48 and the residual activity ([3]; Compound concentration 1.0 uM) was 0.05%. The pKd [4] was 5.64, the residual activity ([4]; Compound concentration 1.0 uM) was 21% and the residual activity [5] was 47%. It also gave a residual activity [6] of 65%, a residual activity [7] of 69% and a residual activity [8] of 71%. It also gave a residual activity [9] of 73%, a residual activity [10] of 77% and a residual activity [11] of 78%. The residual activity [12] was 79%, the residual activity [13] was 80% and the residual activity [14] was 80%. The residual activity [15] was 82%, the residual activity [16] was 83% and the residual activity [17] was 83%. It also gave a residual activity [18] of 83%, a residual activity [19] of 88% and a residual activity [20] of 88%. For the same compound, the residual activity [21] was 89%, the residual activity [22] was 91% and the residual activity [23] was 97%. The residual activity [24] was 99%, the residual activity [25] was 100% and the residual activity [26] was 100%. It also gave a residual activity [27] of 100%, a residual activity [28] of 100% and a residual activity [29] of 100%. It also gave a residual activity [30] of 100%, a residual activity [31] of 100% and a residual activity [32] of 100%. The residual activity [33] was 100%, the residual activity [34] was 100% and the residual activity [35] was 100%. The residual activity [36] was 100%, the residual activity [37] was 100% and the residual activity [38] was 100%. For the same compound, the “Cell Proliferation IC50” value (MDA-MB-453) was 1200 nM and the inhibition [39] was 7%.
